Test results published in ChEMBL document CHEMBL1122349, “Mannich bases of 4-phenyl-3-buten-2-one: a new class of antiherpes agent” (1983).
Values joined by “and” are separate entries in the source; they are usually repeats but may differ in a detail not shown here. Equal entries are not always repeated.

Experiments:
Human alphaherpesvirus 1 [1] = experiment: Reduction of lesion (from control), in hairless mouse model infected with HVH-1(antiherpes activity); assay type: functional, herpes simplex virus; design: concentration or dose not given beside the values
Human alphaherpesvirus 1 [2] = experiment: Average lesion score in hairless mouse model infected with HVH-1(antiherpes activity); assay type: functional, herpes simplex virus
Human alphaherpesvirus 1 [3] = experiment: Antiherpes (Type-1) activity in mouse paralysis model expressed as animals paralyzed treated/percent animals paralyzed control (% T/C); assay type: functional, herpes simplex virus
Mus musculus [4] = organism: Mus musculus; experiment: Reduction of lesion severity, in hairless mice test against herpes type-2,at 5% dose in 1.4% aq.polyvinyl alcohol; assay type: functional
Human alphaherpesvirus 1 [5] = experiment: Reduction of lesion severity, in hairless mouse test against herpes type-1,at 0.75% dose in 1.4% aq.polyvinyl alcohol; assay type: functional, herpes simplex virus
Human alphaherpesvirus 1 [6] = experiment: Reduction of lesion severity, in hairless mouse test against herpes type-1,at 3% dose in 1.4% aq.polyvinyl alcohol; assay type: functional, herpes simplex virus
Mus musculus [7] = organism: Mus musculus; experiment: Reduction of lesion severity, in hairless mouse test against herpes type-1,at 5% dose in 1.4% aq.polyvinyl alcohol; assay type: functional
Human alphaherpesvirus 1 [8] = experiment: Average lesion score in hairless mouse test against Herpes type-1 at dose of 3% in 1.4% aq.polyvinyl alcohol; assay type: functional, herpes simplex virus
Mus musculus [9] = organism: Mus musculus; experiment: Average lesion score in hairless mouse test against Herpes type-1 at dose of 5% in 1.4% aq.polyvinyl alcohol; assay type: functional
Human alphaherpesvirus 1 [10] = experiment: Average lesion score in hairless mouse test against Herpes type-1 at dose of 0.75% in 1.4% aq.polyvinyl alcohol; assay type: functional, herpes simplex virus
Mus musculus [11] = organism: Mus musculus; experiment: Reduction of lesion severity, in hairless mouse test against herpes type-1,at 0.37% dose in 1.4% aq.polyvinyl alcohol; assay type: functional
Mus musculus [12] = organism: Mus musculus; experiment: Reduction of lesion severity, in hairless mouse test against herpes type-1,at 1.5% dose in 1.4% aq.polyvinyl alcohol; assay type: functional
Mus musculus [13] = organism: Mus musculus; experiment: Average lesion score in hairless mouse test against Herpes type-1 at dose of 0.37% in 1.4% aq.polyvinyl alcohol; assay type: functional
Mus musculus [14] = organism: Mus musculus; experiment: Average lesion score in hairless mouse test against Herpes type-1 at dose of 1.5% in 1.4% aq.polyvinyl alcohol; assay type: functional
Mus musculus [15] = organism: Mus musculus; experiment: Reduction of lesion severity, in hairless mice test against herpes type-2,at 0.37% dose in 1.4% aq.polyvinyl alcohol; assay type: functional
Mus musculus [16] = organism: Mus musculus; experiment: Reduction of lesion severity, in hairless mice test against herpes type-2,at 0.75% dose in 1.4% aq.polyvinyl alcohol; assay type: functional
Mus musculus [17] = organism: Mus musculus; experiment: Reduction of lesion severity, in hairless mice test against herpes type-2,at 1.5% dose in 1.4% aq.polyvinyl alcohol; assay type: functional
Mus musculus [18] = organism: Mus musculus; experiment: Reduction of lesion severity, in hairless mice test against herpes type-2,at 2% dose in 1.4% aq.polyvinyl alcohol; assay type: functional

Compound | Reduction (Human alphaherpesvirus 1 [1]) | Average lesion score (Human alphaherpesvirus 1 [2]) | T/C (Human alphaherpesvirus 1 [3]) | other results
CN(C)CCC(=O)/C=C/c1ccccc1.Cl | 30% | 1.8 |  | 
O=C(/C=C/c1ccccc1)CCNc1ccccc1 | 9% | 2.67 |  | 
CCC[S+](C)CCC(=O)/C=C/c1ccccc1.[I-] (stereo not drawn) | 74% | 0.67 |  | 
Cl.O=C(/C=C/c1cccc([N+](=O)[O-])c1)CCN1CCOCC1 |  |  | 47% | 
O=C(/C=C/c1ccccc1)CCSc1ccccc1 | 10% | 2.5 |  | 
C[S+]([O-])CCC(=O)/C=C/c1ccccc1 (stereo not drawn) | 48% | 1.3 |  | 
CCOP(=O)(CCC(=O)/C=C/c1ccccc1)OCC | 10% | 2.3 |  | 
Cl.N#Cc1ccc(/C=C/C(=O)CCN2CCOCC2)cc1 |  |  | 24% | 
Cl.O=C(/C=C/c1ccc2c(c1)OCO2)CCN1CCOCC1 |  |  | 14% | 
O=C(O)CP(=O)([O-])[O-].[Na+].[Na+] [DISODIUM CARBOXYMETHYLPHOSPHONATE] | 74% | 0.33 | 24% and 61% | Reduction (Mus musculus [4]): 78%; Reduction (Human alphaherpesvirus 1 [5]): 9%; Reduction (Human alphaherpesvirus 1 [6]): 69%; Reduction (Mus musculus [7]): 87%; Average lesion score (Human alphaherpesvirus 1 [8]): 0.83; Average lesion score (Mus musculus [9]): 0.33; Average lesion score (Human alphaherpesvirus 1 [10]): 2.5
CC(C)(C[N+](C)(C)C)C(=O)/C=C/c1ccccc1.[I-] | 13% | 2.33 |  | 
Cl.O=C(/C=C/c1ccc(Cl)cc1)CCN1CCOCC1 |  |  | 12% | 
CSc1ccc(/C=C/C(=O)CCN2CCOCC2)cc1.Cl |  |  | 12% | 
COc1cccc(/C=C/C(=O)CCN2CCOCC2)c1.Cl |  |  | 0% | 
C[N+](C)(C)CCC(=O)/C=C/c1ccccc1.[I-] | 64% | 1 |  | Reduction (Mus musculus [11]): 76%; Reduction (Human alphaherpesvirus 1 [5]): 76%; Reduction (Mus musculus [12]): 82%; Reduction (Human alphaherpesvirus 1 [6]): 88%; Average lesion score (Mus musculus [13]): 0.67; Average lesion score (Mus musculus [14]): 0.5; Average lesion score (Human alphaherpesvirus 1 [8]): 0.33; Average lesion score (Human alphaherpesvirus 1 [10]): 0.67
C[S+](C)CCC(=O)/C=C/c1ccccc1.[I-] | 82% | 0.5 |  | Reduction (Mus musculus [11]): 76%; Reduction (Human alphaherpesvirus 1 [5]): 76%; Reduction (Mus musculus [12]): 82%; Reduction (Human alphaherpesvirus 1 [6]): 88%; Average lesion score (Mus musculus [13]): 0.67; Average lesion score (Mus musculus [14]): 0.5; Average lesion score (Human alphaherpesvirus 1 [8]): 0.33; Average lesion score (Human alphaherpesvirus 1 [10]): 0.67
CC(C[N+](C)(C)C)C(=O)/C=C/c1ccccc1.[I-] (stereo not drawn) | 89% | 0.33 |  | 
CS(=O)(=O)c1ccc(/C=C/C(=O)CCN2CCOCC2)cc1.Cl |  |  | 12% | 
Cl.O=C(/C=C/c1ccc(Cl)c(Cl)c1)CCN1CCOCC1 |  |  | 0% | Reduction (Mus musculus [11]): 67%; Reduction (Human alphaherpesvirus 1 [5]): 80%; Reduction (Mus musculus [12]): 80%; Reduction (Human alphaherpesvirus 1 [6]): 80%; Average lesion score (Mus musculus [13]): 0.83; Average lesion score (Mus musculus [14]): 0.5; Average lesion score (Human alphaherpesvirus 1 [8]): 0.5; Average lesion score (Human alphaherpesvirus 1 [10]): 0.5
Cl.O=C(/C=C/c1ccc(O)cc1)CCN1CCOCC1 |  |  | 63% | 
CCCSCCC(=O)/C=C/c1ccccc1 | 0% | 2.8 |  | 
COc1ccc(/C=C/C(=O)CCN2CCOCC2)cc1.Cl |  |  | 25% | 
Cl.O=C(/C=C/c1c(Cl)cccc1Cl)CCN1CCOCC1 |  |  | 14% | 
Cl.O=C(/C=C/c1cccc(C(F)(F)F)c1)CCN1CCOCC1 |  |  | 11% | 
Cl.OC(/C=C/c1ccccc1)CCN1CCOCC1 (stereo not drawn) |  |  | 88% | 
O=C(CCc1ccc(Cl)c(Cl)c1)CCN1CCOCC1 |  |  | 50% | 
Cc1ccc(/C=C/C(=O)CCN2CCOCC2)cc1.Cl |  |  | 38% | 
Cl.O=C(/C=C/c1ccccc1)CCN1CCOCC1 | 94% | 0.17 | 11% | Reduction (Mus musculus [15]): 70%; Reduction (Mus musculus [16]): 78%; Reduction (Mus musculus [17]): 78%; Reduction (Mus musculus [18]): 85%; Reduction (Mus musculus [11]): 67%; Reduction (Human alphaherpesvirus 1 [5]): 67%; Reduction (Mus musculus [12]): 80%; Reduction (Human alphaherpesvirus 1 [6]): 87%; Average lesion score (Mus musculus [13]): 0.83; Average lesion score (Mus musculus [14]): 0.55; Average lesion score (Human alphaherpesvirus 1 [8]): 0.33; Average lesion score (Human alphaherpesvirus 1 [10]): 0.83
COc1cccc(/C=C/C(=O)CC[N+](C)(C)C)c1.[I-] | 86% | 0.33 |  | 
